US4362870A, “Selective opioid receptor alkylating agents” (priority 1981, dated 1982)
Read-outs that look alike come from different tables or passages of the source.

Assays:
[1] = test system: electrically stimulated guinea pig ileal longitudinal muscle; test: cells; type: cell-based; settings: for IC50 Ratio FNA/Control: agonist IC50 after FNA (2 × 10^-8, 30 min, 20 washes) / control
[2] = Toxic effects at a single dose; type: in vivo; settings: single dose which completely blocks morphine for at least three days
[3] = test system: effects of morphine; test: Duration of inhibitory effect on morphine, rat; type: in vivo; settings: HCl salt; 5 mg/kg i.p. in the rat
Excerpt: (§1) The vertical bars represent 95% confidence intervals of the ED50 values.

[4] = test system: effects of morphine; test: Duration of inhibitory effect on morphine (species not given); type: in vivo
Excerpt: as §1

[5] = test system: analgesic response of mice; test: Analgesic response of mice to FNA; type: in vivo, mouse
Protocol: FIG. 2 is a graphic representation of the analgesic response of mice to FNA.
The analgesic response of mice to FNA was tested.

[6] = test system: morphine analgesia; test: Duration of inhibitory effect on morphine analgesia, mouse; type: in vivo; settings: HCl salt; 4.8 nmol/mouse intracebroventricular
Protocol: At 4.8 nmol/mouse (intracebroventricular) or at 5 mg/kg i.p. in the rat, the antagonist effects of FNA (as its HCl salt) lasted at least three days (FIG. 1). The vertical bars represent 95% confidence intervals of the ED50 values.

[7] = test system: electrically stimulated guinea pig ileal longitudinal muscle strip; test: Guinea pig ileum: morphine IC50 ratio before and after exposure to the test compound (Examples V-XIV); type: cell-based; settings: 30 min exposure, 20 washes
Protocol: Details of the assay are found in Rang, Br. J. PHarmacol., 22, 356 (1964).
of the electrically stimulated guinea pig ileal longitudinal muscle strip
(treated) exposure (30 min) of the ileal preparation to the test compound
(2 × 10^-8 M) followed by 20 washes are expressed as a ratio, […]

[8] = background statement; cited from earlier work
[9] = test system: β-endorphin-induced stimulation of food intake; settings: prior report; cited from earlier work

## CSCC[C@H](NC(=O)[C@H](Cc1ccccc1)NC(=O)CNC(=O)[C@@H](C)NC(=O)[C@@H](N)Cc1ccc(O)cc1)C(N)=O [D-Ala^2 -- Met-- enkephlin- Amide]
[1]; after FNA (2 × 10^-8) incubated 30 minutes, washed 20 times, read-out: IC50 After FNA
  IC50: 29.1 nM
[1]
  IC50 Ratio FNA/Control: 6.9
[1]; control, before FNA, guinea pig ileum, read-out: IC50 Control
  IC50: 4.2 nM

## COC(=O)/C=C/C(=O)N[C@@H]1CC[C@@]2(O)[C@H]3Cc4ccc(O)c5c4[C@@]2(CCN3CC2CC2)[C@H]1O5 [FNA, fumarnaltrexamine]
[2]
  toxic effects: no toxic effects
[3]
  duration of antagonist effects: at least three
[1]; FNA 2×10^-8 M, 30 minutes
  inhibition of agonist effects of nalorphine or pentazocine: did not inhibit the agonist effects of nalorphine or pentazocine
  inhibition of response to morphine and enkephalin: inhibited irreversibly
[1]; electrically stimulated guinea pig ileum, summary statement in description
  block of agonist effects of morphine, enkephalin, pentazocine and nalorphine (selectivity): irreversibly block the agonist effects of morphine or enkephalin but not the agonist effects of pentazocine or nalorphine
[4]; single dose
  duration of complete block of the effects of morphine: at least three
[5]
  analgesia: reversible analgesia
  reversal of analgesia by its own antagonistic properties: not reversed by its own antagonistic properties
[6]
  duration of antagonist effects: at least three

## CC(=O)/C=C/C(=O)N[C@@H]1CC[C@@]2(O)[C@H]3Cc4ccc(O)c5c4[C@@]2(CCN3CC2CC2)[C@H]1O5 [IX]
[7]; test compound 2 × 10^-8 M
  IC50 Ratio, morphine IC50 (treated)/morphine IC50 (control): 6.4

## C=CCN1CC[C@]23c4c5ccc(O)c4O[C@H]2[C@@H](O)C=C[C@H]3[C@H]1C5 [Nalorphine]
[1]; Cavia porcellus, 0.5 h, after FNA (2 × 10^-8) incubated 30 minutes, washed 20 times, read-out: IC50 After FNA
  IC50: 25.2 nM
[1]; Cavia porcellus, control, before FNA, guinea pig ileum, read-out: IC50 Control
  IC50: 28.1 nM
[1]
  IC50 Ratio FNA/Control: 0.9

## O=C(/C=C/C(=O)OCCc1ccccc1)N[C@@H]1CC[C@@]2(O)[C@H]3Cc4ccc(O)c5c4[C@@]2(CCN3CC2CC2)[C@H]1O5 [VIII]
[7]; test compound 2 × 10^-8 M
  IC50 Ratio, morphine IC50 (treated)/morphine IC50 (control): 12.8

## O=C(/C=C/C(=O)OCc1ccccc1)N[C@@H]1CC[C@@]2(O)[C@H]3Cc4ccc(O)c5c4[C@@]2(CCN3CC2CC2)[C@H]1O5 [VII]
[7]; test compound 2 × 10^-8 M
  IC50 Ratio, morphine IC50 (treated)/morphine IC50 (control): 3.4

## CCCOC(=O)/C=C/C(=O)N[C@@H]1CC[C@@]2(O)[C@H]3Cc4ccc(O)c5c4[C@@]2(CCN3CC2CC2)[C@H]1O5 [VI]
[7]; test compound 2 × 10^-8 M
  IC50 Ratio, morphine IC50 (treated)/morphine IC50 (control): 4.4

## CCOC(=O)/C=C/C(=O)N[C@@H]1CC[C@@]2(O)[C@H]3Cc4ccc(O)c5c4[C@@]2(CCN3CC2CC2)[C@H]1O5 [V]
[7]; test compound 2 × 10^-8 M
  IC50 Ratio, morphine IC50 (treated)/morphine IC50 (control): 2.8

## Oc1ccc2c3c1O[C@H]1[C@H](N=C=S)CC[C@@]4(O)[C@@H](C2)N(CC2CC2)CC[C@]314 [XIII]
[7]; test compound 2 × 10^-8 M
  IC50 Ratio, morphine IC50 (treated)/morphine IC50 (control): 2.3

## O=C(CI)N[C@@H]1CC[C@@]2(O)[C@H]3Cc4ccc(O)c5c4[C@@]2(CCN3CC2CC2)[C@H]1O5 [XII]
[7]; test compound 10^-6 M
  IC50 Ratio, morphine IC50 (treated)/morphine IC50 (control): 25.6

## C=CCN1CC[C@]23c4c5ccc(O)c4O[C@H]2[C@H](NC(=O)/C=C/C(=O)OC)CC[C@@]3(O)[C@H]1C5 [XIV]
[7]; test compound 10^-7 M
  IC50 Ratio, morphine IC50 (treated)/morphine IC50 (control): 6.4

## C=C(Cl)C(=O)N[C@@H]1CC[C@@]2(O)[C@H]3Cc4ccc(O)c5c4[C@@]2(CCN3CC2CC2)[C@H]1O5 [XI]
[7]; test compound 2 × 10^-8 M
  IC50 Ratio, morphine IC50 (treated)/morphine IC50 (control): 8.2

## C=CC(=O)N[C@@H]1CC[C@@]2(O)[C@H]3Cc4ccc(O)c5c4[C@@]2(CCN3CC2CC2)[C@H]1O5 [X]
[7]; test compound 2 × 10^-8 M
  IC50 Ratio, morphine IC50 (treated)/morphine IC50 (control): 1.9

## CC(C)C[C@H](NC(=O)[C@H](Cc1ccccc1)NC(=O)CNC(=O)CNC(=O)[C@@H](N)Cc1ccc(O)cc1)C(=O)O [enkephalin]
[8]
  hypotensive action: potent hypotensive agents

## C=CCN1CC[C@]23c4c5ccc(O)c4O[C@H]2C(=O)CC[C@@]3(O)[C@H]1C5 [naloxone, reference compound]
[4]; tested 2 hours after administration
  antagonistic effect: its effect had already dissipated
[9]
  block of β-endorphin-induced stimulation of food intake: blocked
